In ChEMBL document CHEMBL1143986, “Probing lipid- and drug-binding domains with fluorescent dyes” (Bioorg Med Chem, 2008):

Assays:
[1] = Aqueous solubility of the compound; assay type: physicochemical
Albumin = Albumin (Bos taurus, UniProt P02769); experiment: Binding affinity to bovine serum albumin
Albumin, sequence (P02769 whole entry): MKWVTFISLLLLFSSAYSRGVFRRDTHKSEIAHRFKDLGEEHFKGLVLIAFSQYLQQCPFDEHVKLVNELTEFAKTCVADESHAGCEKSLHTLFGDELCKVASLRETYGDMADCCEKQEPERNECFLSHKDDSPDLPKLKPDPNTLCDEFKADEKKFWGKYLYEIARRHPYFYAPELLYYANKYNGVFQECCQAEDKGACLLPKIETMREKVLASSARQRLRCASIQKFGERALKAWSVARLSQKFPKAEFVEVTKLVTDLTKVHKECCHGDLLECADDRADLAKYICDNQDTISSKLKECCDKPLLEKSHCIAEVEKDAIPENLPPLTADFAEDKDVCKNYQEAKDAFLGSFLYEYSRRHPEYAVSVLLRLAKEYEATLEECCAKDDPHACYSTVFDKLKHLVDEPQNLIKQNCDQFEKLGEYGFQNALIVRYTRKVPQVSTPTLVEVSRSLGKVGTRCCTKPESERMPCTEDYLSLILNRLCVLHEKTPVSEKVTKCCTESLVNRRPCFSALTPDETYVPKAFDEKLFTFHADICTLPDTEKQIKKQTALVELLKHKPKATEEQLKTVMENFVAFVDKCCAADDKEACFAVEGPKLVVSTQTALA

With `CCN(CC)c1ccc2nc3c4ccc(OCCCC(=O)O)cc4c(=O)cc-3oc2c1` as the molecule, how does the solubility [1] read?
The solubility was > 100 µM.

Which solubility [1] does the source give for `CCN(CC)c1ccc2nc3c4ccc(OCCCC(=O)O)cc4c(=O)c(Br)c-3oc2c1` here?
Its solubility is > 100 µM.

For `CCN(CC)c1ccc2nc3c4cc(OCCCC(=O)O)ccc4c(=O)cc-3oc2c1`, which solubility [1] is on record?
The solubility was > 100 µM.

And the EC50 (Albumin)?
Its EC50 is 1500 nM.

Which solubility [1] does the source give for `CCN(CC)c1ccc2nc3c4cc(OCCCC(=O)O)ccc4c(=O)c(Br)c-3oc2c1` here?
Its solubility is > 100 µM.
